In patent US20090297534A1, “Catalytic Immunoglobulins BBK32 and Uses Therefor” (priority 2005, published 2009):
Where no end group is shown, it is not given here.

Key:
IgA = type: biochemical, human
IgM Yvo = test: Irreversible binding of biotinylated phosphonate by IgM Yvo; conditions: probe 500 μM; IgM Yvo 0.1 μM
IgA (serum and salivary) = test: Phosphonate binding: irreversible adducts with IgA, SDS-electrophoresis, streptavidin-peroxidase; conditions: reducing SDS-gels after heating (100° C., 5 min)
Monoclonal IgA (ID 2582) = test: Stoichiometry / active site titration of monoclonal IgA with phosphonate; type: biochemical, human; conditions: for x-intercept of residual activity (%) versus [inhibitor]/[IgA] plot: monoclonal IgA 2582 preincubated 18 h with 2.5-20 μM inhibitor, Glu-Ala-Arg-AMC 0.4 mM
[1] = system: IgA catalyzed gp120 cleavage (salivary IgA, serum IgA); test: Inhibition of IgA catalyzed gp120 cleavage; type: biochemical, human
Method: Values are means of duplicates.
FIG. 20B depicts streptavidin-peroxidase stained SDS-gel blots (reducing conditions) showing Bt-gp120 (0.1 μM) incubated in diluent (lane 1) and monoclonal IgA (80 μg/ml, from multiple myeloma subject 2582) in the absence (lane 2) or presence of Glu-Ala-Arg-AMC (lane 3; 0.2 mM). […] FIG. 20C is EP-hapten 3 which is the non-biotinylated version of EP-hapten 1.
In some experiments, the cleavage rate was expressed as the intensity of the 55 kD product band (in AVU, corrected for background intensity observed in reaction mixtures of gp120 incubated in diluent instead of Ab). For cleavage site determination, gp120 was incubated with IgA (pooled from subject codes 2288-2291), the IgA was removed by binding to an anti-human IgA column as described above, and the unbound fraction was lyophilized and redissolved in SDS-electrophoresis buffer containing 2-mercaptoethanol. The gp120 fragments in PVDF blots of SDS-gels were stained with Coomassie blue and subjected to N-terminal sequencing as described previously (33).

[2] = system: HIV neutralizing activity of CIVIG / IgA; test: Inhibition of immunoglobulin-mediated HIV neutralization by electrophilic peptide; type: cell-based, HIV-1; conditions: 100 μM; for Effect on HIV neutralizing activity of serum IgA: 0.5 h preincubation, IgA 2 μg/ml
Method: CIVIGm (FIG. 10A) and CIVGa (FIG. 10B) were incubated for 30 min with gp120 peptide-CRA (100 μM) or diluent, and the residual neutralization activity was determined as in FIG. 9 (CIVIGm, 10 μg/mL; CIVGa, 2 μg/mL).
HIV-1 strain, 97ZA009; host cells, phytohemagglutinin-stimulated PBMCs. Abs were incubated with the virus for 24 h. Values are expressed as percent reduction of p24 concentrations in test cultures compared to cultures that received diluent instead of the Abs (means±s.d. of 4 replicates). […] IgA purified from human serum (2 μg/ml) was preincubated (0.5 h) with EP-421-433 (100 μM), control EP-VIP or diluent, and the residual HIV neutralizing activity measured as in panel A. Data are expressed relative p24 levels observed in the absence of antibody. […] HIV was preincubated with the salivary or serum IgA for 1 h and the neutralizing activity measured as in FIG. 24A.
Covalently reactive analogs (CRAs) of polypeptides have been developed as probes for antibodies. CRAs contain an electrophilic phosphonate analog capable of irreversible binding to nucleophiles present in antibody combining sites. The covalent reaction occurs in coordination with noncovalent antigen-antibody binding, ensuring specificity, and permitting the use of peptidyl CRAs for irreversible and specific binding to the antibodies. One such peptidyl CRA reported is an analog of gp120 residues 421-433 containing the phosphonate at its C terminus (gp120 peptide CRA). This region of gp120 is a component of the superantigenic site of this protein. Neutralization of HIV-1 by CIVIGa and CIVIGm was inhibited by the gp120 peptide CRA, confirming that recognition of the gp120 superantigenic site is required for the neutralizing activity. FIGS. 10A-10B illustrate these findings. CIVIGm and CIVGa were preincubated with the gp120 peptide-CRA or diluent, and the residual neutralization activity was determined as in FIG. 9. An irrelevant peptide CRA, VIP-CRA was employed as the control reagent to rule out nonspecific effects. […]

[3] = 10 μM, bleed 2, conditions as FIG. 22B
[4] = increasing concentrations 10-100 μM

For `N=C(N)c1ccc(C(NC(=O)CCCCCNC(=O)CCCC[C@@H]2SC[C@@H]3NC(=O)N[C@@H]32)P(=O)(Oc2ccccc2)Oc2ccccc2)cc1` (stereo partly shown) [1a, diphenyl N-(6-biotinamidohexanoyl)amino(4-amidinophenyl)methanephosphonate], the IC50 (IgA) was 37 ± 1 µM, the “Inhibition of catalytic activity of serum IgA” value (IgA) was “inhibited the catalytic activity” and the “Irreversible reaction with IgM Yvo” value (IgM Yvo) was “reacts irreversibly”. For the same compound, the “Formation of irreversible adducts with IgA” value (“Formation” below) (IgA (serum and salivary)) was “dominant ˜60 kD 1a-adduct of the heavy chain” and the “Formation” value (IgA (serum and salivary); listed as EP-hapten 1) was “formed adducts”.
In the case of `N=C(N)c1ccc(C(NC(=O)OCc2ccccc2)P(=O)(Oc2ccccc2)Oc2ccccc2)cc1` (stereo not shown) [1b, diphenyl N-(benzyloxycarbonyl)amino(4-amidinophenyl)methanephosphonate], the “x-intercept of residual activity (%) versus [inhibitor]/[IgA] plot” value (Monoclonal IgA (ID 2582)) is reported as 2.5, the “x-intercept of residual activity (%) versus [inhibitor]/[IgA] plot” value (Monoclonal IgA (ID 2582); listed as EP-hapten 3) is reported as 2.4 and the “Inhibitor needed for complete inhibition of 1 mole IgA” value (Monoclonal IgA (ID 2582); monoclonal IgA, Glu-Ala-Arg-AMC substrate) is reported as 2.4 mol.
With `N=C(N)c1ccc(C(NC(=O)CCCCCNC(=O)CCCC[C@@H]2SC[C@@H]3NC(=O)N[C@@H]32)P(=O)(O)O)cc1` (stereo partly shown) [hapten 2, N-(6-biotinamidohexanoyl)amino(4-amidinophenyl)methanephosphonic acid] the “Irreversible reaction with IgM Yvo” value (IgM Yvo) was “does not react appreciably” and the “Formation” value (IgA (serum and salivary)) was “did not inhibit IgA-catalyzed gp120 cleavage or form adducts”.
For “EP-421-433: gp120 residues 421-431 with the amidinophosphonate mimetic of residues 432-433 at the C-terminus (KQIINMWQEVG; not fully specified (C-terminus); printed as Lys-Gln-Ile-Ile-Asn-Met-Trp-Gln-Glu-Val-Gly)”, the “% inhibition of gp120 cleavage by IgA of SP subject 2097” value [1, 3] was 89±6%, the “% inhibition of gp120 cleavage by IgA of SP subject 2098” value [1, 3] was 94±12% and the “Inhibition of cleavage of Bt-gp120 by salivary IgA” value [1, 4] was 21-85%. The “Inhibition of cleavage of Bt-gp120 by serum IgA” value [1, 4] was 41-91%, the “Inhibition of HIV-1 neutralization by CIVIGa and CIVIGm” value ([2]; 30 min preincubation, CIVIGm 10 μg/mL, CIVGa 2 μg/mL) was “inhibited” and the “Effect on HIV neutralizing activity of serum IgA” value [2] was “inhibited the neutralizing activity”. The “Formation” value (IgA (serum and salivary)) was “superior irreversible binding”.
In the case of “EP-VIP: VIP containing the amidinophosphonate at Lys20 side chain; control electrophilic peptide”, the “% inhibition of gp120 cleavage by IgAs of SP subjects 2097 and 2098” value ([1]; equivalent concentration (10 μM) of control probe) is reported as less than 15% and the “Effect on HIV neutralizing activity of serum IgA” value [2] is reported as “minimally influenced”.
